Test results as given in publication PMC8491550 (Journal of Medicinal Chemistry, 2021).
Entries after “also recorded” stand apart in the source; their conditions may differ. Read-outs that look alike come from different tables or passages of the source.

Columns and labels:
SARS-CoV-2 M^pro [1] = target: T1, SARS-CoV-2 M^pro (Severe acute respiratory syndrome coronavirus 2, UniProt P0DTD1); assay: Preincubation dilution experiment; format: biochemical
[2] = tested on: SARS-CoV-2 USA-WA1/2020 in human iPSC-derived lung organoids
[3] = tested on: SARS-CoV-2 (USA_WA01/2020) in Vero E6 cells; assay: Antiviral assay in SARS-CoV-2-infected Vero E6 cells; format: cell-based; details: read-out: Antiviral EC50, MOI 0.01, 72 h, cell proliferation
SARS-CoV-2 M^pro [4] = target: T1, SARS-CoV-2 M^pro; assay: Steady-state enzyme kinetics, inhibition mechanism; format: biochemical
[5] = 10 μM preincubation 30 min, 10× dilution

O=c1c2ccccc2[se]n1-c1cccc(Cl)c1 [Compound E19, 2-(3-Chlorophenyl)benzo[d][1,2]selenazol-3(2H)-one]
type of inhibition from preincubation dilution (SARS-CoV-2 M^pro [1]; [5]): rapidly reversible inhibitor

N#Cc1cccc(-n2[se]c3ccccc3c2=O)c1 [Compound E25, 3-(3-Oxobenzo[d][1,2]selenazol-2(3H)-yl)benzonitrile]
type of inhibition from preincubation dilution (SARS-CoV-2 M^pro [1]; [5]): some recovery of the enzymatic activity but not a complete recovery; also recorded: reversible covalent inhibitor

O=c1c2ccccc2[se]n1-c1cc(Cl)cc(Cl)c1 [Compound E20, 2-(3,5-Dichlorophenyl)benzo[d][1,2]selenazol-3(2H)-one]
type of inhibition from preincubation dilution (SARS-CoV-2 M^pro [1]; [5]): reversible covalent inhibitor

O=c1c2ccccc2[se]n1-c1cccc(C(F)(F)F)c1 [Compound E24, 2-(3-(Trifluoromethyl)phenyl)benzo[d][1,2]selenazol-3(2H)-one]
reduction of viral RNA levels, intracellular fraction [2]: ~50% | reduction of viral RNA levels, supernatant fraction [2]: ~50% | toxicity toward the organoids ([2]; 5 μM, 72 h): no observable toxicity

2-(4-Chlorophenyl)benzo[d][1,2]selenazol-3(2H)-one [Compound E15]
EC50 [3]: 11.2 ± 1.3 µM

O=c1c2ccccc2[se]n1-c1ccccc1 [Compound E01, 2-Phenylbenzo[d][1,2]selenazol-3(2H)-one, reference compound]
type of inhibition from preincubation dilution (SARS-CoV-2 M^pro [1]): reversible covalent inhibitor | mechanism of inhibition (SARS-CoV-2 M^pro [4]): likely competitive inhibitors

O=c1c2ccccc2[se]n1-c1ccc(C(F)(F)F)cc1 [Compound E04, 2-(4-(Trifluoromethyl)phenyl)benzo[d][1,2]selenazol-3(2H)-one]
type of inhibition from preincubation dilution (SARS-CoV-2 M^pro [1]; [5]): rapidly reversible inhibitor | mechanism of inhibition (SARS-CoV-2 M^pro [4]; 0.5-10 μM inhibitor, 1.5-30 μM substrate, global fit to mixed model): likely competitive inhibitors

COc1ccc(Cn2[se]c3ccccc3c2=O)c(OC)c1 [Compound E07, 2-(2,4-Dimethoxybenzyl)benzo[d][1,2]selenazol-3(2H)-one]
type of inhibition from preincubation dilution (SARS-CoV-2 M^pro [1]; [5]): reversible covalent inhibitor
